Results reported in publication PMC4293787 (The Scientific World Journal, 2014).
In brackets after ≈: the same amount, converted by molar mass. Read-outs that look alike come from different tables or passages of the source.

Columns and labels:
hepatitis B virus (HBV) = assay: Antiviral test against HBV in HepG 2.2.2.15 cells; type: cell-based, strain ayw1; design: SI50: unit not given beside the values; details: for SI50: HBV, HepG 2.2.2.15 cells
influenza A H1N1 virus [1] = assay: Antiviral test against influenza A H1N1 in MDCK cells, visual (cytopathic effect); type: cell-based, strain California 07/2009; design: SI50: unit not given beside the values; details: for EC50: Influenza A virus, H1N1, MDCK
influenza A H1N1 virus [2] = assay: Antiviral test against influenza A H1N1 in MDCK cells, neutral red (cytopathic effect); type: cell-based, strain California 07/2009; design: SI50: unit not given beside the values; details: for EC50: Influenza A virus, H1N1, MDCK
in vitro [3] = details: dog, MDCK cells
in vitro [4] = details: dog, MDCK cells; remark: listed apart in the source
in vitro [5] = details: human
in vitro [6] = details: human; remark: listed apart in the source
[7] = tested on: herpes simplex virus 1 (HSV-1); assay: microbe, parasite or virus in culture; type: cell-based, strain E-377; design: SI50: unit not given beside the values; details: for EC50: Human alphaherpesvirus 1, HFF
[8] = Toxicity (CC50) in the HSV-2 test, HFF cells (crystal violet); details: human
[9] = tested on: herpes simplex virus 2 (HSV-2); assay: Antiviral test against HSV-2 in HFF cells (crystal violet); type: cell-based, strain MS; design: SI50: unit not given beside the values
[10] = Toxicity (CC50) in the HSV-1 test, HFF cells (crystal violet); details: human
vaccinia virus (VV) = assay: microbe, parasite or virus in culture; type: cell-based, strain Copenhagen; details: Orthopoxvirus vaccinia, HFF
[11] = Hepatitis B virus, HepG2 2.2.15

Compound	EC50 (influenza A H1N1 virus [1])	EC50 (influenza A H1N1 virus [2])	CC50 (in vitro [3])	CC50 (in vitro [4])	melting point	SI50 (hepatitis B virus (HBV))	EC50 (hepatitis B virus (HBV); [11])	CC50 (in vitro [6])	also measured
Nc1ccn([C@@H]2CS[C@H](CO)O2)c(=O)n1 [Compound 3TC, 3TC, reference compound]									EC50 (hepatitis B virus (HBV); HBV strain ayw1, drug concentration range 0.063–20 μM, 3TC control range 0.00032–0.1 μM, read-out: EC50): 0.01 µM
O=C(NC1C=CC(O)C1)c1ccccn1 (stereo not drawn) [Compound 13a, N-(4-Hydroxycyclopent-2-enyl)picolinamide]	> 100 µg/mL	> 100 µg/mL	> 100 µg/mL	> 100 µg/mL					
O=C(NC1C=CC(O)C1)c1cccnc1 (stereo not drawn) [Compound 13b, N-(4-Hydroxycyclopent-2-enyl)nicotinamide]	> 100 µg/mL	> 100 µg/mL	> 100 µg/mL	> 100 µg/mL	125 to 127 °C				CC50 (in vitro [5]): > 300 µM
O=C(NC1C=CC(O)C1)c1ccncc1 (stereo not drawn) [Compound 13c, N-(4-Hydroxycyclopent-2-enyl)isonicotinamide]	> 100 µg/mL	> 100 µg/mL	> 100 µg/mL	> 100 µg/mL	170 to 175 °C				CC50 (in vitro [5]): > 300 µM
O=C(NC1C=CC(O)C1)c1ccc2ccccc2n1 (stereo not drawn) [Compound 13d, N-(4-Hydroxycyclopent-2-enyl)quinoline-2-carboxamide]	> 100 µg/mL	> 100 µg/mL	> 100 µg/mL	> 100 µg/mL	89 to 90 °C				
O=C(NC1C=CC(O)CC1)c1ccccn1 (stereo not drawn) [Compound 14a, N-(4-Hydroxycyclohex-2-enyl)picolinamide]	> 100 µg/mL	> 100 µg/mL	> 100 µg/mL	> 100 µg/mL		1	> 20 µM	> 20 µM	
O=C(NC1C=CC(O)CC1)c1cccnc1 (stereo not drawn) [Compound 14b, N-(4-Hydroxycyclohex-2-enyl)nicotinamide]	> 100 µg/mL	> 100 µg/mL	> 100 µg/mL	> 100 µg/mL	95 to 99 °C	1	> 20 µM	> 20 µM	
O=C(NC1C=CC(O)CC1)c1ccncc1 (stereo not drawn) [Compound 14c, N-(4-Hydroxycyclohex-2-enyl)isonicotinamide]	> 100 µg/mL	> 100 µg/mL	> 100 µg/mL	> 100 µg/mL	245 to 250 °C (dec.)	1	9.64 µM	> 100 µM	
O=C(NC1C=CC(O)CC1)c1ccc2ccccc2n1 (stereo not drawn) [Compound 14d, N-(4-Hydroxycyclohex-2-enyl)quinoline-2-carboxamide]	37 µg/mL (≈ 138 µM)	54 µg/mL (≈ 201 µM)			80 to 84 °C	1	> 20 µM	> 20 µM	SI50 (influenza A H1N1 virus [1]; influenza A H1N1, MDCK cells, visual): >2.7; SI50 (influenza A H1N1 virus [2]; influenza A H1N1, MDCK cells, neutral red): 1.4
NC(=O)c1ncn([C@@H]2O[C@H](CO)[C@@H](O)[C@H]2O)n1 [Ribavirin, reference compound]	3.2 µg/mL (≈ 13.1 µM)	3.1 µg/mL (≈ 12.7 µM)							SI50 (influenza A H1N1 virus [1]): >31; SI50 (influenza A H1N1 virus [2]): 14
Nc1nc2c(ncn2COCCO)c(=O)[nH]1 [acyclovir]									SI50 [7]: > 30; EC50 [7]: 3.29 µM; CC50 [8]: > 100 µM; SI50 [9]: > 27; EC50 ([9]; Human alphaherpesvirus 2, HFF): 3.7 µM; CC50 [10]: > 100 µM
Nc1ccn(C[C@@H](CO)OCP(=O)(O)O)c(=O)n1 [cidofovir]						> 1	180 µM		SI50 ([7]; HSV-1, HFF cells): > 1; EC50 [7]: 180 µM; EC50 (vaccinia virus (VV)): 6.07 µM; CC50 [10]: > 200 µM
